Values joined by “and” are separate entries in the source; they are usually repeats but may differ in a detail not shown here. Equal entries are not always repeated.
Legend:
[1] = cited from earlier work
[2] = tested on: SARS-CoV-2 VOC-202012/01 strain; format: cell-based

| Structure (SMILES) | plasma half-life [1] [h] | time of peak plasma concentrations [1] [h] | 100% CPE inhibitory concentration (CPEIC100) [2] | time to maximal effectiveness on the coronavirus ([2]; after starting treatment) [h] |
| --- | --- | --- | --- | --- |
| O=c1nc[nH]c2c1ncn2[C@H]1CC[C@@H](CO)O1 [DDI, 9-[(2R,5S)-5-(hydroxymethyl)oxolan-2-yl]-3H-purin-6-one] | ≤ 2 | 0.5 to 1.5 | 8.95 µM and 8.95 ± 0.52 µM | 12 to 24 |
| N#C[C@@]1(c2ccc3c(N)ncnn23)O[C@H](CO)[C@@H](O)[C@H]1O [GS-441524] | – | – | 17.40 µM and 17.40 ± 1.83 µM | – |
| CCC(CC)COC(=O)[C@H](C)N[P@](=O)(OC[C@H]1O[C@@](C#N)(c2ccc3c(N)ncnn23)[C@H](O)[C@@H]1O)Oc1ccccc1 [remdesivir] | – | – | 25.17 µM and 25.17 ± 2.51 µM | – |
